Target: T1, recombinant human CXCR2 (Homo sapiens, UniProt P25025)
T1 construct: TEV protease site; Gal4-VP16 transcription factor
T1 sequence (P25025 1-360): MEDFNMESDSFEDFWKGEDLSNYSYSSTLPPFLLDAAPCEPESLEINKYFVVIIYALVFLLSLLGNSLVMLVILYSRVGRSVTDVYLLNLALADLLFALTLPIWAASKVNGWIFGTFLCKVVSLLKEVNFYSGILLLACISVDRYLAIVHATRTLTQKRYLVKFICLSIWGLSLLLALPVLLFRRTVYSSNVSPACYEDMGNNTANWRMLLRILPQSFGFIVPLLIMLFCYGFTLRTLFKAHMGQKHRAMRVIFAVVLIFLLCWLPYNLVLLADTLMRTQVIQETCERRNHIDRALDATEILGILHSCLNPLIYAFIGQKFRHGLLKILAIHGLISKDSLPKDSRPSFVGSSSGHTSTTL
Experiment: CXCR2 Tango assay
Type: cell-based
Details: mean pIC50 of multiple test results; stimulated with 80 nM hCXCL1; reporter gene blue/green emission ratio; read-out: pIC50 (CXCR2 Tango assay) (converted)
How it was run: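 Mean pIC50 comes from sigmoidal fits of the blue/green (460/530 nm) CCF4-AM ratio, normalized between hCXCL1-stimulated and DMSO controls. Compounds in 10-point dose response were incubated overnight at 37 °C with recombinant human CXCR2 Tango cells (~10,000/well) and 80 nM hCXCL1, with reporter read-out via arrestin-TEV release of Gal4-VP16.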

**Q.** How did the IC50 turn out when `CC1=CCC[C@H]1NC(=O)Nc1ccc(Cl)c(S(=O)(=O)[C@@]2(C)CCOC2)c1O` [Compound 195, 1-(4-chloro-2-hydroxy-3-(((S)-3-methyltetrahydrofuran-3-yl)sulfonyl)phenyl)-3-((R)-2-methylcyclopent-2-en-1-yl)urea] was run?
**A.** ≤ 0.01 µM
